Measurements: patent US11358977B2, “Deuterated pyridone amides and prodrugs thereof as modulators of sodium channels” (VERTEX PHARMACEUTICALS INCORPORATED, priority 2017, dated 2022)

Test: In vitro microsomal metabolic stability assay, rat
Type: in vitro ADME
Details: rat liver microsomes 0.25 mg/mL, 1.0 μM compound, NADPH
Protocol: Materials. Rat, Dog, Monkey and Human liver microsomes (20 mg/mL) were obtained from Xenotech, LLC (Lenexa, Kans.). P-nicotinamide adenine dinucleotide phosphate, reduced form (NADPH), magnesium chloride (MgCl2), and dimethyl sulfoxide (DMSO) were purchased from Sigma-Aldrich.
Methods. […] The 10 mM stock solutions were diluted to 100 μM in DMSO. In each cluster polypropylene tube, 190.7 μL of 100 mM phosphate buffer, pH 7.4 was added, then 2.5 μL of liver mocrosomes (20 mg/mL, rat, dog, monkey or human) was added, then a 2 μL aliquot of the 100 μM test compound was added, and the mixture was pre-warmed for 10 minutes. Reactions were initiated by addition of 4.8 μL of pre-warmed NADPH solution (100 mM in 100 mM phosphate buffer). The final reaction volume was 200 μL and contained 0.25 mg/mL rat, dog, monkey or human liver microsomes, 1.0 μM test compound, and 2.4 mM NADPH in 0.1 M potassium phosphate buffer, pH 7.4. The reaction mixtures were incubated at 37° C., and the reactions were quenched at 0, 15, 30 and 60 minutes by adding 200 μL of ice-cold quench solution (ACN:MeOH:0.1% formic acid in water 2:2:1) containing internal standard, n=3 per time point. The tubes were centrifuged and supernatants were analyzed for amounts of the test compound remaining by LC-MS/MS. The HPLC system included a Phenomenex Luna C8 column, 3 micron, 2 mm diameter×30 mm long eluted with a gradient mobile phase consisting of 0.1% formic acid in water or in acetonitrile. The analytes were detected by MS/MS with Electrospray Ionization (ESI) in the mode of multiple reaction monitoring (MRM). The injection volume was 10 μL.

- % remaining (0 min): 100%
- % remaining (15 min): 109%
- % remaining (30 min): 105%
- % remaining (60 min): 92.2%
Structure (SMILES): [2H]C([2H])([2H])c1cc(F)ccc1Oc1cc(C(F)(F)F)ccc1C(=O)Nc1cc[nH]c(=O)c1 [Compound 7, 2-(4-fluoro-2-(methyl-d3)phenoxy)-N-(2-oxo-1,2-dihydropyridin-4-yl)-4-(trifluoromethyl)benzamide]
